Source: paper PMC9855333, “1-(Arylsulfonyl-isoindol-2-yl)piperazines as 5-HT6R Antagonists: Mechanochemical Synthesis, In Vitro Pharmacological Properties and Glioprotective Activity” (Biomolecules, 2022)

Experiments:
[1] = Cytotoxicity, MTT test, HepG2; assay type: cell-based; conditions: human, HepG2 cells (human hepatocellular carcinoma)
Method: (§1) Hepatotoxicity, neurotoxicity, and glial cytotoxicity were investigated using the following cellular models: human hepatocellular carcinoma (HepG2), human neuroblastoma (SHSY-5Y), and mouse astrocytes (C8-D1A), all from ATCC (American Type Culture Collection, Manassas, VA, USA). Cells were cultured in appropriate culture media recommended by ATCC supplemented with 10% fetal bovine serum (FBS; Gibco, Life Technologies, Carlsbad, CA, USA) and 1% antibiotic mixture (Gibco, Life Technologies, Carlsbad, CA, USA). Cells were cultured at standard conditions (5% CO2, 95% humidity, 37 °C). For cytotoxicity experiments, cells were seeded into 96 well plates at an initial density of 2000 cells/well. After overnight incubation, cells were treated with 3e, 3f, and 3g in a concentration range of 0.78–50 µM for 48 h; then, an MTT assay was performed as described previously. Briefly, following cell exposure, 10 µL of MTT reagent was added to each well. After the next 4 h, the medium was aspirated, and formazan produced in cells appeared as dark crystals in the bottom of the wells. Next, 100 µL DMSO was added to each well. Then, the optical density of the solution (OD) at 570 nm was determined on a plate reader (Spectra Max iD3, Molecular Devices, San Jose, CA, USA). The experiments were run three times in triplicates.

[2] = Cytotoxicity, MTT test, SH-SY5Y; assay type: cell-based; conditions: human, SH-SY5Y cells (human neuroblastoma)
Method: as §1

[3] = Cytotoxicity, MTT test, C8-D1A; assay type: cell-based; conditions: mouse, C8-D1A cells (mouse astrocytes)
Method: as §1

5-HT6R = 5-HT6R (Homo sapiens, UniProt P50406); assay: Basal cAMP production by constitutively active 5-HT6R in NG108-15 cells (CAMYEL BRET); assay type: cell-based; parameters: expressed in transfected cells; host or cells: NG108-15 (mouse neuroblastoma x rat glioma hybrid), transient co-transfection with CAMYEL, Lipofectamine 2000; conditions: NG108-15 cells transiently expressing 5-HT6R
Method: Changes in cyclic AMP levels upon exposure to increasing concentrations of the tested compounds were assessed by BRET (Bioluminescence Resonance Energy Transfer) measurement using a Mithras LB 940 plate reader (Berthold Technologies), as previously described. A detailed description is reported in the Supporting Information.
2. Procedure for determination of functional activity at Gs signaling
2.1. Impact of compound 3e, 3f and 3g on cAMP production in 1321N1 cells The properties of evaluated compounds to inhibit cAMP production induced by 5-CT (1000 nM), a 5-HT6R agonist, was assessed according to previously published procedures. The level of cAMP was measured using frozen recombinant 1321N1 cells expressing the human serotonin 5-HT6R (PerkinElmer). Total cAMP was measured using the LANCE cAMP detection kit (PerkinElmer), according to the manufacturer's recommendations. For quantification of cAMP levels, 2000 cells/well (5 μL) were incubated with mixture of compound 3e, 3f and 3g (5 μL) for 30 min at room temperature in 384-well white opaque microtiter plate. After incubation, the reaction was stopped and cells were lysed by the addition of 10 μL of working solution (5 μL Eu-cAMP and 5 μL ULight-anti-cAMP) for 1 h at room temperature. Time-resolved fluorescence resonance energy transfer (TR-FRET) was detected by an Infinite M1000 Pro (Tecan) using instrument settings from LANCE cAMP detection kit manual. Compound was tested in triplicate at 8 concentrations (10-11–10-4 M). Kb values were calculated from Cheng–Prusoff equation specific for the analysis of functional inhibition curves:
Kb = IC50/(1+A/EC50) where A represents agonist concentration, IC50 the concentration of antagonist producing a 50% reduction in the response to agonist, and EC50 the agonist concentration which causes a half of the maximal response.
1.1.1. Impact of evaluated compounds on cAMP production elicited by constitutively active […]
BRET was measured using a Mithras LB 940 plate reader (Berthold Technologies). […]

C8-D1A astrocytes [4] = assay: Glioprotection against 6-OHDA-induced cytotoxicity, MTT; assay type: cell-based, mouse; conditions: compound 0.25 µM, 6-OHDA 20 µM, 24 h
Method: (§2) Mouse astrocytes (C8-D1A cell line, ATCC) were cultured in DMEM (Dulbecco’s Modified Eagle’s Medium) supplemented with 10% FBS (FBS; Gibco, Life Technologies, Carlsbad, CA, USA) and 1% antibiotic mixture (Gibco, Life Technologies, Carlsbad, CA, USA) at standard condition until the cells reached 80–90% confluence. Cells were harvested and seeded in 96-well plates at a density of 5000 cells/well. All experiments were conducted with a reduced amount of serum equal to 2.5%. The optimal amount of serum was determined experimentally on the basis of preliminary studies. […] Then 6-OHDA (20 µM) or rotenone (0.5 µM) were added and co-incubated for the next 24 h. The ability of tested compounds to prevent 6-OHDA-induced or rotenone-induced cytotoxicity was assessed by MTT assay following the protocol described above. The experiments were run three times in triplicates.
(§3) Considering the pivotal physiological role of astrocytes in contrasting oxidative stress and promoting tissue repair, supporting their neuroprotective function might be regarded as a tangible strategy to improve the current therapeutic needs in the treatment of neurodegenerative disorders. […] For this purpose, cells were co-incubated with the evaluated compounds (at the non-toxic concentration of 0.25 µM) and 6-OHDA or ROT (20 and 0.5 µM, respectively). After 24 h of incubation, the viability of astrocytes was determined using the MTT assay.

C8-D1A astrocytes [5] = assay: Glioprotection against rotenone-induced cytotoxicity, MTT; assay type: cell-based, mouse; conditions: compound 0.25 µM, rotenone 0.5 µM, 24 h
Method: as §2, §3

Chain of 5-HT6R (P50406 whole entry): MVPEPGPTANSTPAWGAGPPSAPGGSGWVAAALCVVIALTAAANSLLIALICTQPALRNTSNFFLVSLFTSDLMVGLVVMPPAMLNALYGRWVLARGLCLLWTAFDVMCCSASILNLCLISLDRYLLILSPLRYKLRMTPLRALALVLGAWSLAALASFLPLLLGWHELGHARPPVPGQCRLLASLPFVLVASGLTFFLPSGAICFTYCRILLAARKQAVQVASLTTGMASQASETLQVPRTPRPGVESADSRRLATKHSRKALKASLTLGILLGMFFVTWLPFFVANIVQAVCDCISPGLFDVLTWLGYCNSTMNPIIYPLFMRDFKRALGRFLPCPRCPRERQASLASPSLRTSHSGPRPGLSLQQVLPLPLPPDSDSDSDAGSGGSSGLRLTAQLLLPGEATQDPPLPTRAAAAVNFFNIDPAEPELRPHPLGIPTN

Row | SMILES | IC50 at 48 h [1] [µM] | IC50 at 48 h [2] [µM] | IC50 at 48 h [3] [µM] | 5-HT6R Functional Profile at Gs Signaling (5-HT6R) | effect on 6-OHDA-induced cytotoxicity (C8-D1A astrocytes [4]) | effect on ROT-induced cytotoxicity (C8-D1A astrocytes [5])
1 | O=S(=O)(c1cccc(N2CCNCC2)c1)N1Cc2ccccc2C1 [3e, 2-{[3-(Piperazin-1-yl)phenyl]sulfonyl}isoindoline] | > 50 | 42 | > 50 | Neutral antagonist |  | 
2 | O=S(=O)(c1cccc(N2CCNCC2)c1)N1Cc2cccc(Cl)c2C1 [3f, 4-Chloro-2-{[3-(piperazin-1-yl)phenyl]sulfonyl}isoindoline] | > 50 | 38 | > 50 | Neutral antagonist |  | 
3 | O=S(=O)(c1cccc(N2CCNCC2)c1)N1Cc2cccc(Br)c2C1 [3g, 4-Bromo-2-{[3-(piperazin-1-yl)phenyl]sulfonyl}isoindoline] | > 50 | 48 | > 50 | Neutral antagonist | decreased the cytotoxicity | decreased the cytotoxicity
